Results as given in patent US9006257B2, “Bicyclic compounds as mPGES-1 inhibitors” (Glenmark Pharmaceuticals S.A., priority 2012, dated 2015).

Molecular target: T1, Recombinant human mPGES-1 (Homo sapiens, UniProt O14684)
T1 construct: made in house; host or cells: CHO cells
T1 sequence (O14684 1-152): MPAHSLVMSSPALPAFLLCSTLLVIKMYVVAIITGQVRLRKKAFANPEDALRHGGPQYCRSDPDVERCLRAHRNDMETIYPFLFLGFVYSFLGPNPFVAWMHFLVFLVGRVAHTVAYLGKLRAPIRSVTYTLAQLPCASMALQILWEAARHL
Assay: In-vitro mPGES-1 inhibitor screening (inhibition of PGE2 formation from PGH2, HTRF detection)
Format: biochemical
Conditions: for inhibition at 1 µM: 1 μM test compound, read-out: Percentage inhibition at 1 μM; for inhibition at 1 µM / inhibition at 10 µM: crude microsomal fraction, 15 μM PGH2; for inhibition at 10 µM: 10 μM test compound, read-out: Percentage inhibition at 10 μM; for IC50: class symbol, concentration response curve
Description: In-Vitro Protocol for Screening of mPGES-1 Inhibitors:
mPGES-1 (microsomal prostaglandin E synthase-1) is a microsomal enzyme that converts endoperoxide substrate PGH2 (prostaglandin H2) to product PGE2 (prostaglandin E2) by isomerization in the presence of reduced glutathione (GSH). mPGES-1 inhibitors were screened by assessing their ability to inhibit formation of PGE2 from PGH2 in presence of mPGES-1 using an anti-PGE2 antibody based detection method. Recombinant human mPGES-1 was generated in-house by expression in CHO cells (Ouellet M et al. (2002), Protein Expression and Purification 26: 489-495). The assay was set up using crude microsomal fractions at protein concentration of 40-60 μg/mL. Test compounds were prepared in 100% dimethyl sulfoxide (DMSO) to obtain 20 mM stock solution and then diluted using assay buffer comprising 0.1 M Potassium phosphate buffer with 2 mM EDTA. The final concentration of DMSO in reaction was 0.5% (v/v). Negative controls were comprised of all assay reagents except the enzyme. Positive controls were comprised of the enzyme reaction in the absence of any inhibitor. Test compounds were incubated for 10 minutes in assay buffer containing 2.5 mM GSH and mPGES-1 enzyme followed by addition of PGH2 at a concentration of 15 μM for 1 minute. The reaction was stopped by addition of Stannous chloride (11 mg/ml) and PGE2 levels were measured (Masse F et al. (2005), Journal of Biomolecular Screening 10(6) 599-605., Goedken R E et al. (2008), Journal of Biomolecular Screening 13(7): 619-625) by HTRF kit (CisBio)).
Inhibition of mPGES-1 enzyme activity was measured using the percent of reaction occurring in the positive control. Concentration response curves were plotted using percent inhibition of maximum enzyme reaction. The IC50 value was calculated from the concentration response curve by nonlinear regression analysis using GraphPad PRISM software.

| Compound | inhibition at 1 µM [%] | inhibition at 10 µM [%] | IC50 [nM] |
| --- | --- | --- | --- |
| CC(C)(C)C(=O)NCc1ccc(Cl)c(C(=O)Nc2cccc3c(Nc4cccc(C(F)(F)F)c4)nccc23)c1F [Example-1, 6-Chloro-2-fluoro-3-(pivalamidomethyl)-N-(1-((3-(trifluoromethyl)phenyl)amino)isoquinolin-5-yl)benzamide] | 95.2 | 96.7 | < 50 |
| CC(C)(C)C(=O)NCc1ccc(Cl)c(C(=O)Nc2cccc3c(Oc4cccc(C(F)(F)F)c4)ncnc23)c1 [Example-10, 2-Chloro-5-(pivalamidomethyl)-N-(4-(3-(trifluoromethyl)phenoxy)quinazolin-8-yl)benzamide] | 99.7 | 98.9 | < 50 |
| CC(C)(C)C(=O)NCc1ccc(Cl)c(C(=O)Nc2cccc3c(Nc4ccc(C(F)(F)F)cc4F)nccc23)c1 [Example-44, 2-Chloro-N-(1-((2-fluoro-4-(trifluoromethyl)phenyl)amino)isoquinolin-5-yl)-5-(pivalamidomethyl)benzamide] | 100 | 100 | < 50 |
| CC1(C)CCC(Oc2ncnc3c(NC(=O)c4c(Cl)ccc(CNC(=O)C(C)(C)C)c4F)cccc23)CC1 [Example-24, 6-Chloro-N-(4-((4,4-dimethylcyclohexyl)oxy)quinazolin-8-yl)-2-fluoro-3-(pivalamidomethyl)benzamide] | 99.3 | 99.8 | < 50 |
| CC(C)(C)C(=O)NCc1ccc(Cl)c(C(=O)Nc2cccc3c(O[C@H]4CC[C@@H](C(F)(F)F)CC4)ncnc23)c1F [Example-26, 6-Chloro-2-fluoro-3-(pivalamidomethyl)-N-(4-(((1s,4s)-4-(trifluoromethyl)cyclohexyl)oxy)quinazolin-8-yl)benzamide] | 93.4 | 93.1 | < 50 |
| CC(C)(C)C(=O)NCc1ccc(Cl)c(C(=O)Nc2cccc3c(Oc4cccc(C(F)(F)F)c4)ccnc23)c1F [Example-18, 6-Chloro-2-fluoro-3-(pivalamidomethyl)-N-(4-(3-(trifluoromethyl)phenoxy)quinolin-8-yl)benzamide] | 100 | 99.9 | < 50 |
| Cc1nc(Nc2cccc(C(F)(F)F)c2)c2cccc(NC(=O)c3c(Cl)ccc(CNC(=O)C(C)(C)C)c3F)c2n1 [Example-33, 6-Chloro-2-fluoro-N-(2-methyl-4-((3-(trifluoromethyl)phenyl)amino)quinazolin-8-yl)-3-(pivalamidomethyl)benzamide] | 95.5 | 97.2 | < 50 |
| CC(C)(C)C(=O)NCc1ccc(Cl)c(C(=O)Nc2cccc3c(Oc4cccc(C(F)(F)F)c4)ccnc23)n1 [Example-17, 3-Chloro-6-(pivalamidomethyl)-N-(4-(3-(trifluoromethyl)phenoxy)quinolin-8-yl)picolinamide] | 94.3 | 93.9 | < 50 |
| CC1(C)CCC(Nc2nc(C(F)(F)F)nc3c(NC(=O)c4c(Cl)ccc(CNC(=O)C(C)(C)C)c4F)cccc23)CC1 [Example-32, 6-Chloro-N-(4-((4,4-dimethylcyclohexyl)amino)-2-(trifluoromethyl)quinazolin-8-yl)-2-fluoro-3-(pivalamidomethyl)benzamide] | 94.5 | 95.9 | < 50 |
| CC1(C)CCC(Oc2ncnc3c(NC(=O)c4cc(CNC(=O)C(C)(C)C)ccc4Cl)cccc23)CC1 [Example-15, 2-Chloro-N-(4-((4,4-dimethylcyclohexyl)oxy)quinazolin-8-yl)-5-(pivalamidomethyl)benzamide] | 98.1 | 97.5 | < 50 |
| CC(C)(C)C(=O)NCc1ccc(Cl)c(C(=O)Nc2cccc3c(O[C@H]4CC[C@H](C(F)(F)F)CC4)nccc23)c1 [Example-38, 2-Chloro-5-(pivalamidomethyl)-N-(1-(((1r,4r)-4-(trifluoromethyl)cyclohexyl)oxy)isoquinolin-5-yl)benzamide] | 99.3 | 99.9 | < 50 |
| CC(C)(C)C(=O)NCc1ccc(Cl)c(C(=O)Nc2cccc3c(Oc4cccc(C(F)(F)F)c4)nccc23)c1F [Example-5, 6-Chloro-2-fluoro-3-(pivalamidomethyl)-N-(1-(3-(trifluoromethyl)phenoxy)isoquinolin-5-yl)benzamide] | 99.5 | 98.5 | < 50 |
| CC(C)(C)C(=O)NCc1ccc(Cl)c(C(=O)Nc2cccc3c(Nc4ccc(C(F)(F)F)nc4)ncnc23)c1F [Example-30, 6-Chloro-2-fluoro-3-(pivalamidomethyl)-N-(4-((6-(trifluoromethyl)pyridin-3-yl)amino)quinazolin-8-yl)benzamide] | 97.4 | 99.1 | < 50 |

The remaining lines, values ahead:

| inhibition at 1 µM [%] | inhibition at 10 µM [%] | IC50 [nM] | Compound |
| --- | --- | --- | --- |
| 86.8 | 98.7 | 50 to 100 | CC(C)(C)Nc1ncnc2c(NC(=O)c3ccc(F)c(CNC(=O)C(C)(C)C)c3Cl)cccc12 [Example-72, N-(4-(tert-Butylamino)quinazolin-8-yl)-2-chloro-4-fluoro-3-(pivalamidomethyl)benzamide] |
| 100 | 99.1 | < 50 | CC(C)(C)Nc1ncnc2c(NC(=O)c3c(Cl)ccc(CNC(=O)C(C)(C)CF)c3F)cccc12 [Example-79, N-(4-(tert-Butylamino)quinazolin-8-yl)-6-chloro-2-fluoro-3-((3-fluoro-2,2-dimethylpropanamido)methyl)benzamide] |
| 94 | 93 | < 50 | Cc1nc(NC(C)(C)C)c2cccc(NC(=O)c3c(Cl)ccc(CNC(=O)C(C)(C)C)c3F)c2n1 [Example-65, N-(4-(tert-Butylamino)-2-methylquinazolin-8-yl)-6-chloro-2-fluoro-3-(pivalamidomethyl)benzamide] |
| 99.2 | 99.6 | < 50 | CC(C)(C)C(=O)NCc1ccc(Cl)c(C(=O)Nc2cccc3c(O[C@H]4CC[C@H](C(F)(F)F)CC4)nccc23)c1F [Example-50, 6-Chloro-2-fluoro-3-(pivalamidomethyl)-N-(1-(((1r,4r)-4-(trifluoromethyl)cyclohexyl)oxy)isoquinolin-5-yl)benzamide] |
| 97.3 | 97.8 | < 50 | CC(C)(C)Nc1ncnc2c(NC(=O)c3c(Cl)ccc(CNC(=O)C(C)(C)C)c3F)cccc12 [Example-62, N-(4-(tert-Butylamino)quinazolin-8-yl)-6-chloro-2-fluoro-3-(pivalamidomethyl)benzamide] |
| 96.5 | 100 | < 50 | CC(C)(C)Nc1ncnc2c(NC(=O)c3cc(CNC(=O)C(C)(C)C)ccc3Cl)cccc12 [Example-67, N-(4-(tert-Butylamino)quinazolin-8-yl)-2-chloro-5-(pivalamidomethyl)benzamide] |
| 96.7 | 96.8 | < 50 | CC(C)(CO)C(=O)NCc1ccc(Cl)c(C(=O)Nc2cccc3c(Oc4cccc(C(F)(F)F)c4)ncnc23)c1F [Example-66, 6-Chloro-2-fluoro-3-((3-hydroxy-2,2-dimethylpropanamido)methyl)-N-(4-(3-(trifluoromethyl)phenoxy)quinazolin-8-yl)benzamide] |
| 100 | 100 | < 50 | CC(C)C(=O)NCc1cnc(C(F)F)c(C(=O)Nc2cccc3c(Oc4cccc(C(F)(F)F)c4)ncnc23)c1 [Example-74, 2-(Difluoromethyl)-5-(isobutyramidomethyl)-N-(4-(3-(trifluoromethyl)phenoxy)quinazolin-8-yl)nicotinamide] |
| 86.5 | 91.7 | > 100 | Cc1nc(NC2CCC(F)(F)CC2)c2cccc(NC(=O)c3c(Cl)ccc(CNC(=O)C(C)(C)C)c3F)c2n1 [Example-60, 6-Chloro-N-(4-((4,4-difluorocyclohexyl)amino)-2-methylquinazolin-8-yl)-2-fluoro-3-(pivalamidomethyl)benzamide] |
| 88.7 | 93.2 | < 50 | CC(C)C(=O)NCc1ccc(Cl)c(C(=O)Nc2cccc3c(NCC(F)(F)F)ncnc23)c1F [Example-73, 6-Chloro-2-fluoro-3-(isobutyramidomethyl)-N-(4-((2,2,2-trifluoroethyl)amino)quinazolin-8-yl)benzamide] |
